In patent US20020045595A1, “N6 heterocyclic 8-modified adenosine derivatives” (priority 1999, published 2002):
pKi: −log10 of the molar value.

Key:
[1] = tested on: A1 adenosine receptor (DDT1 cells); assay: cAMP assay (SPA) in DDT1 cells with forskolin; format: cell-based, hamster; settings: 5 μM forskolin; for cAMP: rolipram 50 μM, normalized to the full agonist CPA
Experimental: (§1) DDT cells (hamster vas deferens smooth muscle cell line) were grown as monolayers in petri dishes using Dulbecco's Modified Eagle's Medium (DMEM) containing 2.5 μg ml^−1 amphotericin B, 100 U ml^−1 penicillin G, 0.1 mg ml^−1 streptomycin sulfate and 5% fetal bovine serum in a humidified atmosphere of 95% air and 5% CO2. Cells were subcultured twice weekly by dispersion in Hank's Balanced Salt Solution (HBSS) without the divalent cations and containing 1 mM EDTA. The cells were then seeded in growth medium at a density of […] per plate and experiments were performed 4 days later at approximately one day preconfluence.
A scintillation proximity assay (SPA) using rabbit antibodies directed at cAMP using an added tracer of adenosine 3′,5′-cyclic phosphoric acid 2′-O-succinyl-3-[^125I] iodotyrosine methyl ester and fluoromicrospheres containing anti-rabbit specific antibodies as described by Amersham Pharmacia Biotech (Biotrak cellular communication assays). Briefly, DDT1 cells were cultured in clear bottomed 96 well microtiter plates with opaque wells at concentrations between 10^4 to 10^6 cells per well in 40 μl of HBSS at 37° C. (5% CO2 and 95% humidity). The partial or full A1 agonists (5 μl )of this invention were incubated at various concentrations with the DDT1 cells in the presence of rolipram (50 μM), and 5 μM forskolin for 10 min at 37° C. The cells were immediately lysed by treatment 5 μl of 10% dodecyltrimethylammonium bromide followed by shaking using microplate shaker. After incubation of the plate for 5 minutes, an immunoreagent solution (150 μl containing equal volumes of tracer, antiserum, and SPA fluorospheres) was added to each well followed by sealing the plate. After 15-20 h at 23° C., the amount of bound [^125I] cAMP to the fluoromicrospheres was determined by counting in a microtitre plate scintillation counter for 2 minutes. Comparison of counts with standard curves generated for cAMP using a similar protocol afforded the cAMP present after cell lysis.

A1 AdoR = molecular target: T1, A1 AdoR (Mesocricetus auratus, UniProt A0A1U8BVR4); assay: A1-agonist stimulated [35S]GTPγS binding assay, DDT1 membranes; format: biochemical, hamster; settings: [35S]GTPγS binding normalized to the full agonist CPA
T1 construct: endogenous in cells; host or cells: DDT1 (DDT) hamster vas deferens smooth muscle cells, membrane preparation
T1 sequence (A0A1U8BVR4 1-326): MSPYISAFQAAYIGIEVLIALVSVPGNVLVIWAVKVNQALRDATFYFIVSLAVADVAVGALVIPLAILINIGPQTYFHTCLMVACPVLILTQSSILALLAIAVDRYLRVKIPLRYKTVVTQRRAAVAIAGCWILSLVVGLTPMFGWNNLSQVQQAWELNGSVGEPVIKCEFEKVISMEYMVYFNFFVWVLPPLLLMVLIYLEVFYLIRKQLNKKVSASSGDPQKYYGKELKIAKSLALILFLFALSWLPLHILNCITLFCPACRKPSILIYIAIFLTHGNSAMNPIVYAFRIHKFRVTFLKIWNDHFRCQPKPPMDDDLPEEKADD
Experimental: as §1
Attached cells were washed twice with HBSS (2×10 ml), scraped free of the plate with the aid of a rubber policeman in 5 ml of 50 mM Tris-HCl buffer pH 7.4 at 4° C. and the suspension homogenized for 10 s. The suspension was then centrifuged at 27,000 x g for 10 min. The pellet was resuspended in homogenization buffer by vortexing and centrifuged as described above. The final pellet was resuspended in 1 vol of 50 mM Tris-HCl buffer pH 7.4 containing 5 mM MgCl2 for A1 AdoR assays. For the [^35S]GTPγS binding assay the final pellet was resuspended in 50 mM Tris-HCl pH 7.4 containing 5 mM MgCl2, 100 mM NaCl and 1 mM dithiothreitol. This membrane suspension was then placed in liquid nitrogen for 10 min, thawed and used for assays. The protein content was determined with a Bradford™ Assay Kit using bovine serum albumin as standard.
A1-agonist stimulated [^35S] GTPγS binding was determined by a modification of the method described by Giersckik et al. (1991) and Lorenzen et al. (1993). […] Nonspecific binding was determined by the addition of 10 μM GTPγS. […] Previous reports have shown that agonist stimulated [^35S]GTPγS binding was dependent on the presence of GDP (Gierschik et al., 1991; Lorenzen et al., 1993; Traynor & Nahorski, 1995). […] In saturation experiments, 0.5 nM [^35S]GTPγS was incubated with 0.5-1000 nM GTPγS. At the end of the incubation, each suspension was filtered and the retained radioactivity determined as described above.

A1 receptor = molecular target: T2, A1 receptor (Sus scrofa, UniProt I3LEN5); assay: Competitive binding assay, pig striatum membranes, [3H]CPX; settings: pig striatum membrane prep, antagonist [3H]CPX 2 nM
T2 sequence (I3LEN5 1-326): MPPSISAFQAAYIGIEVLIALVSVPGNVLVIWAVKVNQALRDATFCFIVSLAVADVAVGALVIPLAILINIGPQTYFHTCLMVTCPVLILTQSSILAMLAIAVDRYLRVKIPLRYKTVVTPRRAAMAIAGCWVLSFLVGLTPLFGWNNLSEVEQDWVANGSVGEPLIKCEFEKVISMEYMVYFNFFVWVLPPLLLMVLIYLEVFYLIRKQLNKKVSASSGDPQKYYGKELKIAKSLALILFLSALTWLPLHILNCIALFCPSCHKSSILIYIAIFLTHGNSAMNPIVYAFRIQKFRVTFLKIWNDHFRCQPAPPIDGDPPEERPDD
Experimental: Pig striatum were prepared by homogenation in 50 mM Tris buffer ( 5x volume of tissue mass pH=7.4). After centrifugation at 19,000 rpm for 25 minutes at 4° C., the supernatant was discarded, and the process was repeated twice. Compositions of this invention were assayed to determine their affinity for the A1 receptor in a pig striatum membrane prep or a DDT1 membrane prep. Briefly, 0.2 mg of pig striatal membranes or DDT1 cell membranes were treated with adenosine deaminase and 50 mM Tris buffer (pH=7.4) followed by mixing. To the pig membranes was added 2 μL of serially diluted DMSO stock solution of the compounds of this invention at concentrations ranging from 100 microM to 10 nM. The control received 2 microL of DMSO alone, then the antagonist [^3H] 8-cyclopentylxanthine (CPX) for pig striatum or the agonist [3H] 2-chloro-6-cyclopentyladenosine (CCPA) for DDT1 membranes in Tris buffer (50 mM, pH of 7.4) was added to achieve a final concentration of 2 nM. After bation at 23 C. for 2 h, then the solutions were filtered using a membrane harvester using iple washing of the membranes (3 x). The filter disks were counted in scintillation cocktail rding the amount of displacement of tritiated CPX or by the competitive binding ositions of this invention. Greater than a 5 point curve was used to generate Ki's and the er of experiments is indicated in the column marked in Table 1, below: […]

Structure (SMILES) | forskolin induced cAMP generation [1] | cAMP [1] [%] | GIPγS (A1 AdoR) [%] | pKi (A1 receptor)
OC[C@H]1O[C@@H](n2cnc3c(NC4CCCC4)ncnc32)[C@H](O)[C@@H]1O [CPA, N-6-cyclopentyladenosine, reference compound] | back to basal levels | 100 | – | –
CCNc1nc2c(N[C@@H]3CCOC3)ncnc2n1[C@@H]1O[C@H](CO)[C@@H](O)[C@H]1O [Compound 5, 2-{6-[((3 R)oxolan-3-yl)amino]-8-(ethylamino)purin-9-yl}(4 S,2 R,3 R,5 R)-5-(hydroxymethyl)oxolane-3,4-diol] | – | – | 89 | 6.86
CNc1nc2c(NC3CCOC3)ncnc2n1C1OC(CO)C(O)C1O (stereo not drawn) [Compound 7] | – | – | – | 6.10
CCCNc1nc2c(N[C@@H]3CCOC3)ncnc2n1[C@@H]1O[C@H](CO)[C@@H](O)[C@H]1O [Compound 8, 2-{6-[((3 R)oxolan-3-yl)amino]-8-(propylamino)purin-9-yl}(4 S,2 R,3 R,5 R)-5-(hydroxymethyl)oxolane-3,4-diol] | – | – | – | 5.98
CCCCNc1nc2c(N[C@@H]3CCOC3)ncnc2n1[C@@H]1O[C@H](CO)[C@@H](O)[C@H]1O [Compound 9, 2-{6-[((3 R)oxolan-3-yl)amino]-8-(butylamino)purin-9-yl}(4S,2 R,3 R,5 R)-5-(hydroxymethyl)oxolane-3,4-diol] | – | – | – | 5.55
OC[C@H]1O[C@@H](n2c(NCc3ccccc3)nc3c(N[C@@H]4CCOC4)ncnc32)[C@H](O)[C@@H]1O [Compound 10, 2-{6-[((3 R)oxolan-3-yl)amino]-8-[benzylamino]purin-9-yl}(4 S,2 R,3 R,5 R)-5-(hydroxymethyl)oxolane-3,4-diol] | – | – | – | 5.13
CC(C)Nc1nc2c(N[C@@H]3CCOC3)ncnc2n1[C@@H]1O[C@H](CO)[C@@H](O)[C@H]1O [Compound 11, 2-{6-[((3 R)oxolan-3-yl)amino]-8-[(methylethyl)amino]purin-9-yl}(4 S,2 R,3 R,5 R)-5-(hydroxymethyl)oxolane-3,4-diol] | – | 37 | 68 | –
C=CCNc1nc2c(N[C@@H]3CCOC3)ncnc2n1[C@@H]1O[C@H](CO)[C@@H](O)[C@H]1O [Compound 12, 2-{6-[((3 R)oxolan-3-yl)amino]-8-(prop-2-enylamino)purin-9-yl}(4 S,2 R,3 R,5 R)-5-(hydroxymethyl)oxolane-3,4-diol] | – | 42 | 77 | –
